Source: US11478440B2, “Combination of Elafibranor or derivatives thereof with an anti-NASH, anti-fibrotic or anti-cholestatic agent” (GENFIT, priority 2017, dated 2022)

System: LPS-activated macrophages (THP-1)
Experiment: TNFα secretion (HTRF) in LPS-activated THP-1 macrophages
Assay type: cell-based, human
Details: Elafibranor 1 μM alone; LPS 100 ng/ml 6 h
Protocol: THP-1 monocytes (ECACC #88081201) were seeded at a density of 25550 cells per well in 384-well plate in RPMI1640 (Gibco, 21875) supplemented with 10% SVF and differentiated into macrophages using PMA (Phorbol 12-myristate 13-acetate, Sigma, P8139) at the final concentration of 100 ng/ml for 24 hours.
For these experiments, a checkerboard matrix was generated. ELA and component stocks were serially diluted in DMSO in 6-points series in a column (ELA) and a 10-points series in a raw (component) of a 96-well plate for other compounds. Subsequently, the 6×10 combination matrix was generated by 1:1 mixing of all single agent concentrations.
After 24 hrs with PMA, medium was removed, and replaced by serum free RPMI. […]
Human TNFα is quantified in the supernatants using the Homogeneous Time Resolved Fluorescence (HTRF) technology (Cisbio 62[…]), based on FRET technology. FRET (Fluorescence Resonance Energy Transfer) is based on the transfer of energy between two fluorophores, a donor and an acceptor, when in close proximity. Molecular interactions between biomolecules can be assessed by coupling each partner with a fluorescent label and by detecting the level of energy transfer (665 nm). […]

For “1-[4-methylthiophenyl]-3-[3,5-dimethyl-4-carboxydimethylmethyloxyphenyl]prop-2-en-1-one [Elafibranor]”, the “inhibition of TNFα secretion” value was 21%.
